In US20240044763A1, “GASTROINTESTINAL TRACT SIMULATION SYSTEM AND METHOD” (ProDigest, priority 2020, published 2024):
Counter-ions that a name gives are not always drawn. Like-named read-outs stand apart in the source and are kept apart here.

Assays:
[1] = gastrointestinal tract simulation system, fasted state, Sporanox solution with or without water; format: in vitro ADME
Method: FIGS. 5A-7B are a series of graphs showing the results of an experiment, simulating fasted state conditions, in which tests are performed in an experimental setup as shown in FIG. 1. […] At the start of the first experimental run, 20 mL of Sporanox® solution (corresponding to a dose of 200 mg itraconazole) was added to the stomach (without water) (Vdose 1=20 mL) whereas at the start of the second run, 20 mL of Sporanox solution was added together with 240 mL of water to the first compartment (with water) (Vdose 2=260 mL). […] Itraconazole concentrations were determined through UHPLC chromatography coupled to UV detection. All experiments were performed in biological triplicate.

[2] = cited from earlier work
[3] = cited from earlier work; remark: listed apart in the source

Row | area under the curve of the permeated compound ([1]; with versus without water, outer vessel (sink)) | AUC of solute concentration in the duodenum (fed state with carbohydrate solution compared to fasted state) | AUC of solute concentration in the duodenum (fed state with elevated stomach pH) | SMILES | behaviour of itraconazole in the duodenum ([1]; without water, duodenum pH 6.5) | aqueous solubility [2] | decrease in indinavir bioavailability ([3]; high carbohydrate meal compared to fasted) [%] | decrease in indinavir bioavailability ([3]; high fat meal compared to fasted) [%] | decrease in indinavir bioavailability ([3]; high protein meal compared to fasted) [%]
1 | absence of a substantial difference |  |  | CCC(C)n1ncn(-c2ccc(N3CCN(c4ccc(OCC5COC(Cn6cncn6)(c6ccc(Cl)cc6Cl)O5)cc4)CC3)cc2)c1=O (centres unmarked) [Itraconazole, itraconazole] | precipitation of a fraction of the administered dose | very low aqueous solubility |  |  | 
2 |  | increased | decreased substantially | CC(C)(C)NC(=O)[C@@H]1CN(Cc2cccnc2)CCN1C[C@@H](O)C[C@@H](Cc1ccccc1)C(=O)N[C@H]1c2ccccc2C[C@H]1O [indinavir sulfate] |  |  | 45 | 34 | 68
